The values below come from US6479531B1, “Gastrin and cholecystokinin receptor ligands” (James Black Foundation Limited, priority 1998, dated 2002).

One assay addresses T1, CCKB receptor (Mus musculus, UniProt P56481).
T1 construct: The whole brains from male mice (CD1 22-25 g; Charles River) were removed; from tissue; host or cells: cerebral cortex membranes of male CD1 mice
T1 sequence (P56481 1-453): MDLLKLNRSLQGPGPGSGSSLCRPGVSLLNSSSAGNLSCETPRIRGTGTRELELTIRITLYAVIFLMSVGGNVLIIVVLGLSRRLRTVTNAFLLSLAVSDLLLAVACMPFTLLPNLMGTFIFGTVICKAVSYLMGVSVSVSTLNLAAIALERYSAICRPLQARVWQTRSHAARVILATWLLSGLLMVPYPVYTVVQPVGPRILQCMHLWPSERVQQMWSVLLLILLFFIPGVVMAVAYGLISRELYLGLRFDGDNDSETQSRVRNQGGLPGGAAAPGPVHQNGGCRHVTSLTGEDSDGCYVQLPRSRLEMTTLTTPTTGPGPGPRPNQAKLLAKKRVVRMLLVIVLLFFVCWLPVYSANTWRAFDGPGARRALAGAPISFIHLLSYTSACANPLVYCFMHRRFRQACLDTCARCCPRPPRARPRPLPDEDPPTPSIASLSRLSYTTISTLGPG
Nature of the assay: CCKB receptor radioligand binding assay in mouse cortical membranes. To be noted: [125I]-CCK8(S) 200 pM, 150 min at 21±3°, read-out: CCKB pKi (converted). In short, it runs like this:
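Bound radioactivity was gamma-counted after rapid GF/B filtration and cold 50 mM Tris-HCl (pH 7.4) washes. The tissue was cerebral cortex from male CD1 mice, prepared as twice-centrifuged membranes in pH 7.2 HEPES/NaCl/KCl/MgCl2/EDTA buffer with bacitracin at 20 mg/ml original wet weight.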

The target of a further assay is T2, gastrin receptor (Rattus norvegicus, UniProt P30553).
T2 construct: The stomach was excised and flushed with ca. 1 ml of unbuffered physiological saline solution; from tissue; host or cells: isolated whole stomach of immature rats (ca. 21 days old)
T2 sequence (P30553 1-452): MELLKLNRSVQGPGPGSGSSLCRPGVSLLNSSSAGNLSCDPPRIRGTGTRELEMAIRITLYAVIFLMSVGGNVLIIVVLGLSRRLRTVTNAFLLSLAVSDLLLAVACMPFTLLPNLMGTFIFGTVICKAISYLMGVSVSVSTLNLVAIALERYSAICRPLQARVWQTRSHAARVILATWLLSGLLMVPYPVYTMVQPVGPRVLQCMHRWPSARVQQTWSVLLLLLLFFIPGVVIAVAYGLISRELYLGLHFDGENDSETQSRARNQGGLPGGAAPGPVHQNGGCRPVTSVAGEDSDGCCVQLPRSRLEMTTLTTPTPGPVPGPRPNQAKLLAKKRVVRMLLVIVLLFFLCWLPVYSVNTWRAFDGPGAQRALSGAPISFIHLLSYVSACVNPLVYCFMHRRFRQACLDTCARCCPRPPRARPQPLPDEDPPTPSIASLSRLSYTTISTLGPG
Nature of the assay: gastrin antagonist activity in immature rat stomach assay (pentagastrin dose-response, acid secretion). The settings on record: isolated immature rat stomach, cumulative pentagastrin dose-response curves, read-out: Gastrin pKb (converted). The essentials:
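Isolated, lumen-perfused stomach from immature rats (33-50 g, ca. 21 days) in a 37° organ bath with 3×10^−8 M 5-methylfurmethide, gassed 95% O2/5% CO2. Compound added serosally after 120 min stabilisation; cumulative pentagastrin dose-response curves begun 60 min later, acid secretion followed by perfusate pH.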

Take `Cc1ccc(NC(=O)c2nc(-c3ccccc3C)n(C)c2CCC23CC4CC(CC(C4)C2)C3)cc1C(=O)O` [Example 161, 5-{[5-(2-Adamantan-1-yl-ethyl)-1-methyl-2-o-tolyl-1H-imidazole-4-carbonyl]-amino}-2-methyl-benzoic Acid]: the Ki on CCKB receptor was 38.9 nM. At gastrin receptor, the Kb is 81.3 nM.

`Cc1ccccc1-c1nc(C(=O)Nc2cccc(C(=O)O)c2)c(CC2CCCCCC2)[nH]1` [Example 165, 3-[(5-Cycloheptylmethyl-2-o-tolyl-1H-imidazole-4-carbonyl)-amino]-benzoic Acid]: at CCKB receptor, the Ki is 1820 nM. For the same compound, the Kb at gastrin receptor is 123 nM.

Turning to `O=C(O)c1cccc(NC(=O)c2nc(C3CCCCC3)[nH]c2CCC2CCCCCC2)c1` [Example 166, 3-{[5-(2-Cycloheptyl-ethyl)-2-cyclohexyl-1H-imidazole-4-carbonyl]-amino}-benzoic Acid], the Ki at CCKB receptor was 135 nM. For the same compound, the Kb at gastrin receptor is 12.9 nM.

For `Cc1ccc(NC(=O)c2nc(C3CCCCC3)[nH]c2CCC2CCCCCC2)cc1C(=O)O` [Example 167, 5-{[5-(2-Cycloheptyl-ethyl)-2-cyclohexyl-1H-imidazole-4-carbonyl]-amino}-2-methyl-benzoic Acid], on CCKB receptor, the Ki was 28.2 nM. Besides, the Kb at gastrin receptor was 13.8 nM.

Consider `O=C(O)c1cccc(NC(=O)c2nc(C3CCCCC3)[nH]c2CCC2CCCCC2)c1` [Example 168, 3-{[2-Cyclohexyl-5-(2-cyclohexyl-ethyl)-1H-imidazole-4-carbonyl]-amino}-benzoic Acid], for which the Ki on CCKB receptor is 245 nM. For the same compound, the Kb on gastrin receptor was 64.6 nM.

Take `Cc1ccc(NC(=O)c2nc(-c3ccccc3C)[nH]c2CCC2CCCCC2)cc1C(=O)O` [Example 169, 5-{[5-(2-Cyclohexyl-ethyl)-2-o-tolyl-1H-imidazole-4-carbonyl]-amino}-2-methyl-benzoic Acid]: at CCKB receptor, the Ki is 132 nM. The Kb at gastrin receptor is 75.9 nM.

With `O=C(O)c1cccc(NC(=O)c2nc(C3CCCCC3)[nH]c2CCCC23CC4CC(CC(C4)C2)C3)c1` [Example 171, 3-{[5-(3-Adamantan-1-yl-propyl)-2-cyclohexyl-1H-imidazole-4-carbonyl]-amino}-benzoic Acid], the Ki on CCKB receptor was 141 nM. Also, on gastrin receptor, the Kb was 38.9 nM.

As to `O=C(O)c1cccc(NC(=O)c2nc(C3CCCCC3)[nH]c2CCC2C3CC4CC(C3)CC2C4)c1` (stereo not drawn) [Example 172, 3-{[5-(2-Adamantan-2-yl-ethyl)-2-cyclohexyl-1H-imidazole-4-carbonyl]-amino}-benzoic Acid], the Ki at CCKB receptor was 21.4 nM. Also, the Kb at gastrin receptor was 3.72 nM.

For the compound `Cc1ccc(NC(=O)c2nc(C3CCCCC3)[nH]c2CCC2C3CC4CC(C3)CC2C4)cc1C(=O)O` (stereo not drawn) [Example 173, 5-{[5-(2-Adamantan-2-yl-ethyl)-2-cyclohexyl-1H-imidazole-4-carbonyl]-amino}-2-methyl-benzoic Acid], the Ki at CCKB receptor was 6.17 nM. Further, the Kb on gastrin receptor is 4.79 nM.

In the case of `CC12CC3CC(C)(C1)CC(CCc1[nH]c(C4CCCCC4)nc1C(=O)Nc1cccc(C(=O)O)c1)(C3)C2` [Example 174, 3-({2-Cyclohexyl-5-[2-(3,5-dimethyl-adamantan-1-yl)-ethyl]-1H-imidazole-4-carbonyl}-amino)-benzoic Acid], at CCKB receptor, the Ki is 251 nM. Besides, the Kb at gastrin receptor was 204 nM.

With `O=C(O)c1cccc(NC(=O)c2nc(-c3cccnc3)[nH]c2CCC23CC4CC(CC(C4)C2)C3)c1` [Example 177, 3-{[5-(2-Adamantan-1-yl-ethyl)-2-pyridine-3-yl-1H-imidazole-4-carbonyl]-amino}-benzoic Acid], the Ki at CCKB receptor is 603 nM. Also, the Kb on gastrin receptor was 151 nM.

On to `O=C(O)c1cccc(NC(=O)c2nc(-c3ccccn3)[nH]c2CCC23CC4CC(CC(C4)C2)C3)c1` [Example 178, 3-{[5-(2-Adamantan-1-yl-ethyl)-2-pyridine-2-yl-1H-imidazole-4-carbonyl]-amino}-benzoic Acid], for which, on CCKB receptor, the Ki was 245 nM. Further, the Kb at gastrin receptor was 166 nM.
